From patent publication US9050353B2, “Use of icariin and epimedium flavonoids containing icariin to treat diseases associated with myelin sheath lesion” (Xuanwu Hospital of Capital Medical University, priority 2010, dated 2015)

How the values were obtained:
Malondialdehyde (MDA) = assay: MDA content of cerebral cortex, biochemical kit, EAE rats; type: in vivo; conditions: positive control drug, dose not given
Procedure: (§1) Preparation of rat model and administration: experimental autoimmune encephalomyelitis (EAE) model is an important tool for studying various human demyelinating diseases of nervous system. In the example, the preparation of EAE rat model was performed by multipoint immunizing female Lewis rats subcutaneously at tail root with a homogenate of spinal cord and cerebral gray matter of Guinea pig as well as complete Freund's adjuvant after emulsification. They were intragastrically administered with Epimedium flavanoids for 3 weeks.
(§2) Experimental objective: the lipid peroxidation between oxygen free radicals and unsaturated fatty acids of cell membranes and organelle membranes results in the damage, degradation, denaturation and dysfunction of membrane phospholipids. Malondialdehyde (MDA) is a metabolic product of lipid peroxidation, and the increase of MDA indicates the enhancement of lipid peroxidation, which may lead to damage of nerve cells and myelin sheath. Superoxide dismutase (SOD) can scavenge superoxide anions and is an important antioxidase in vivo. In this experiment, SOD activity and MDA content of brain tissues in EAE rat model were measured by biochemistry method, and the effects of Epimedium flavanoids on changes thereof were observed. […]

CNPase = CNPase positive cells of spinal cord lumbar intumescentia by immunohistochemical method, EAE rats; type: in vivo; conditions: positive control drug, dose not given
Procedure: as §1
Experimental objective: myelin sheath is formed with prominences of oligodendroglial cells. 2′3′-cyclic […]-3′-phosphodiesterase (CNPase) is a marker protein of mature oligodendroglial cells. In this experiment, CNPase content of cerebral cortex in EAE rat model was measured by Western blot method, CNPase content of spinal cord lumbar intumescentia was measured by immunohistochemical method; and the effects of Epimedium flavanoids on these contents were observed.
Experimental method: the rats were anesthetized with 10% chloral hydrate on the 14th day of experiment, fixed by perfusion of 4% paraformaldehyde, spinal cord tissues were taken for frozen section. […] Pictures were analyzed using Image Pro plus5.0 software to count positive cells.

[1] = tested on: inflammatory cell infiltration in spinal cord tissues of EAE mice model; assay: Inflammatory cell infiltration in spinal cord, HE staining, EAE mice; type: in vivo; conditions: positive control drug, dose not given, scale 0-4
Procedure: (§3) Preparation of mice model and administration: experimental autoimmune encephalomyelitis (EAE) mice model is an important tool for studying various human demyelinating diseases of nervous system. In the present experiment, the preparation of EAE mice model was performed by immunizing female C57BL/6J mice with myelin sheath oligodendroglial cell surface glycoprotein MOG35-55. That is, the mice were subcutaneously injected at dorsal part of spinal column with 0.2 mL of MOG35-55 antigen elixir, and 0.2 ml of bordetella pertussis solution was intraperitoneally injected at the time of immunization injection and 48 h thereafter, respectively. Icariin was intragastrically administered after the last injection of bordetella pertussis solution, for consecutive 3 weeks.
Experimental objective: the pathological changes of spinal cord in EAE model, especially inflammatory cell infiltration situations was assayed by hematoxylin-eosin (HE) staining test, and the intervention effects of […] on these pathological changes were observed.
Experimental method: the mice were anesthetized with 10% chloral hydrate on the 28th day of experiment, fixed by perfusion of 4% paraformaldehyde, spinal cord tissues were taken for making paraffin sections, section thickness […]. Stained with HE, observed under microscope, and scored according to the following standard: 0 score, absence of cell infiltration; 1 score, spinal meninge cell infiltration; 2 score, 1 to 4 small ranges of cell infiltration around vessels; 3 score, 5 or more small ranges of cell infiltration around vessels, or one or more accumulatively substantial large range of cell infiltration; 4 score, a large number of cell infiltration ranges accumulatively existing in 20% or more of white matter regions.

[2] = tested on: myelin basic protein (MBP); assay: Spinal cord MBP by Western blot, EAE mice; type: in vivo; conditions: positive control drug, dose not given
Procedure: as §3
Experimental objective: myelin sheath is formed with prominences of oligodendroglial cells. CNPase, myelin basic protein (MBP) are marker proteins of mature oligodendroglial cells. The present experiment was to observe the expression of CNPase and MBP to represent the content of oligodendroglial cells in spinal cord of EAE model mice by Western blot method; and to study the effects of icariin on it.
Experimental method: the mice were anesthetized and sacrificed, fresh spinal cord was taken on ice, total protein was extracted by cleavage on ice, to prepare Western blot sample, added separately with CNPase, MBP primary antibodies and incubated, added with corresponding secondary antibodies, ECL colorated, Kodak film exposed. Pictures were analyzed with Image J software and standardized with β-actin.

[3] = tested on: Superoxide dismutase (SOD); assay: SOD activity of cerebral cortex, biochemical kit, EAE rats; type: in vivo; conditions: positive control drug, dose not given
Procedure: as §1, §2

[4] = tested on: Nerve growth factors (NGF); assay: NGF of spinal cord lumbar intumescentia by immunohistochemical method, EAE rats; type: in vivo; conditions: positive control drug, dose not given
Procedure: as §1
Experimental objective: neurotrophic factors are important substances for constituting nerve regeneration microenvironment. Nerve growth factors (NGF) are important neurotrophic factors, can promote the regeneration and plerosis of nerve cells and myelin sheath. In this experiment, NGF content of spinal cord lumbar intumescentia in EAE rat model was measured by immunohistochemical method, and the effects of Epimedium flavanoids on the content was observed.
Experimental method: the rats were anesthetized with 10% chloral hydrate, fixed by perfusion of 4% paraformaldehyde, spinal cord tissues were taken for frozen section. Incubated with NGF primary antibody, added with corresponding secondary antibody and third antibody, DAB colorated, observed under microscope, and pictures were analyzed using Image Pro plus5.0 software.

[5] = tested on: nitric-oxide synthase (NOS); assay: NOS activity of cerebral cortex, biochemical kit, EAE rats; type: in vivo; conditions: positive control drug, dose not given
Procedure: as §1
Experimental objective: nitric-oxide synthase (NOS) catalyzes the generation of nitric oxide (NO). During inflammatory reaction, the activity of induced NOS increases, excess NO are generated and oxygen radicals are generated via oxidation, which may result in damages in nerve cells and myelin sheath. In this experiment, NOS activity and NO content were measured using biochemical kits in cerebral cortex of EAE rat model, and the effects of Epimedium flavanoids on changes thereof were observed. […]

[6] = tested on: experimental autoimmune encephalomyelitis (EAE) mice model; assay: Nervous function damage score in EAE mice model; type: in vivo, C57BL/6J mice; conditions: peak of attack, positive control drug, dose not given, scale 0-5
Procedure: as §3
Nervous function test method: the ethological changes of mice were observed by two experimenters every day using blind method. Scoring standard: 0 score, absence of symptom; 1 score, decrease of tail tension, evident slight gait awkward; 2 score, disappearance of tail tension, moderate gait abnormal, deficient in maintaining gesture; 3 score, limb strength weak; 4 score, limb paralysis; 5 score, near death or died.

Which MDA content (Malondialdehyde (MDA)) does the source give for `CC(=O)OCC(=O)[C@@]1(O)CC[C@H]2[C@@H]3CCC4=CC(=O)C=C[C@]4(C)[C@H]3C(=O)C[C@@]21C` [prednisone acetate] here?
Its MDA content is 1.03 ± 0.09 nmol/mg protein.

And the “CNPase positive cell count” value (CNPase)?
Its value is 1378.2 ± 125.4.

And the “Inflammatory cell infiltration (HE staining score)” value [1]?
Its value is 1.05 ± 0.13.

And the “MBP/actin Integration grey level” value [2]?
Its value is 1.05 ± 0.11.

What about the SOD activity [3] of the same molecule?
Its SOD activity is 134.5 ± 5.1 U/mg protein.

And the “NGF positive cell Accumulative optical density” value [4]?
The value was 11.25 ± 1.67 ×10^5.

And the NOS activity [5]?
Its NOS activity is 2.44 ± 0.08 U/mg protein.

And the “Nervous function damage score” value [6]?
The value was 0.89 ± 0.28.
